Holding throughout (assay type): physicochemical
Series [1] can be described thus: Maximum absorption wavelength and gram absorption coefficient, toluene solution 0.01 g/L (first embodiment). The note with it: optical path length 10 mm. How it is done:
The maximum absorption wavelength of the benzotriazole compound of the first embodiment is measured using a spectrophotometer (for example, Shimadzu Spectrophotometer UV-1600 manufactured by Shimadzu Corporation) at an optical path length of 10 mm using a toluene solution having a concentration of 0.01 g/L.
In Examples according to the first embodiment, the maximum absorption wavelength and the gram absorption coefficient of the benzotriazole compound were measured using a Shimadzu Spectrophotometer UV-1600 manufactured by Shimadzu Corporation at an optical path length of 10 mm using a toluene solution having a concentration of 0.01 g/L.

Series [2] is described as follows: Solubility to various organic solvents. The note with it: room temperature; for Solubility to various organic solvents: PGMEA / Solubility to various organic solvents: Ethyl acetate / Solubility to various organic solvents: MEK / Solubility to various organic solvents: MMA / Solubility to various organic solvents: Toluene: Table 1; for Solubility to various organic solvents: MEK / Solubility: MEK: methyl ethyl ketone; for Solubility to various organic solvents: MMA / Solubility: MMA: methyl methacrylate; for Solubility: PGMEA / Solubility: EA / Solubility: MEK / Solubility: MMA / Solubility: Toluene: Table 6; for Solubility to various organic solvents: Ethyl acetate / Solubility: EA: ethyl acetate. How it is done:
As Comparative Example 1, the solubility of TINUVIN326 (manufactured by BASF Japan Ltd.) represented by the following Formula (TI) was measured by the following method.
To 0.5 g of the benzotriazole compound, the various organic solvents shown in Table 1 were added such that the total mass was about 10 g, the mixture was irradiated with ultrasonic waves for about 30 minutes, and thereafter stirred at room temperature for 2 hours to prepare a dispersion of about 10% by mass.
The dispersion was filtered through a membrane filter (0.2 μm), and the obtained residue was dried in a dryer at 60° C. for 1 hour, and then the mass of the residue was measured.
The solubility of the benzotriazole compound to the solvent was expressed by the following formula. Solubility (% by mass)=(W0−W1)/W0
W0 is the mass of the benzotriazole compound before the treatment, and W1 is the mass of the residue after drying (that is, the dissolution residue of the benzotriazole compound). In a case in which no residue remained on the filter, the solubility was determined as 5% by mass or more.
The solubility of the benzotriazole compound obtained in each Example and Comparative Example was measured by the following method.
To 0.5 g of the benzotriazole compound, the various organic solvents shown in Table 6 were added such that the total mass was about 10 g, the mixture was irradiated with ultrasonic waves for about 30 minutes, and thereafter stirred at room temperature for 2 hours to prepare a dispersion of about 10% by mass.

Series [3] is described as follows: Heat resistance: TG5% decomposition temperature. The note with it: nitrogen atmosphere, heating rate 10° C./min; for T-5% by mass: Table 2; for Decomposition temperature (Tg-5% by mass): Table 6. How it is done:
In each Example and Comparative Example, the decomposition temperature was measured by the following method.
Using a thermal analyzer Rigaku ThermoPlus Evo TG8120, the TG5% decomposition temperature (T-5% by mass) was measured under a nitrogen atmosphere at a heating rate of 10° C./min and a temperature range of from room temperature to 500° C.
The higher the T-5% by mass, the higher the heat resistance.
The decomposition temperature of the benzotriazole compound obtained in each Example and Comparative Example was measured by the following method.

Series [4] can be described thus: Maximum absorption wavelength and gram absorption coefficient, toluene solution 0.002 g/L (second embodiment). The settings on record: optical path length 10 mm. As for the experimental part: The maximum absorption wavelength of the benzotriazole compound of the second embodiment is measured using a spectrophotometer (for example, Shimadzu Spectrophotometer UV-1600 manufactured by Shimadzu Corporation) at optical path length of 10 mm using a toluene solution having a concentration of 0.002 g/L.
In Examples according to the second embodiment, the maximum absorption wavelength and the gram absorption coefficient of the benzotriazole compound were measured using a Shimadzu Spectrophotometer UV-1600 manufactured by Shimadzu Corporation at an optical path length of 10 mm using a toluene solution having a concentration of 0.002 g/L.

In the case of `CCCCCCC(=O)Nc1ccc(-n2nc3ccc(Sc4ccc(C(C)(C)C)cc4)cc3n2)c(O)c1` [Compound (55)], in series [1], the gram absorption coefficient was 6.9×10^4 g/mL·cm and the maximum absorption was determined as 371.0 nm. In series [2], the “Solubility to various organic solvents: PGMEA” value is reported as 5 or more % by mass, the “Solubility to various organic solvents: Ethyl acetate” value (“Solubility … Ethyl acetate” for short) was 5 % by mass, the “Solubility to various organic solvents: MEK” value is recorded as 5 % by mass and the “Solubility to various organic solvents: MMA” value is reported as 5 or more % by mass. Moreover, the “Solubility to various organic solvents: Toluene” value in series [2] was determined as 2 % by mass. For the same compound, the T-5% by mass in series [3] was 359.4 °C.
For the compound `CCCCC(CC)C(=O)Nc1ccc(-n2nc3ccc(Cl)cc3n2)c(O)c1` (centres unmarked) [Compound (56)], in series [1], the gram absorption coefficient was 7.48×10^4 g/mL·cm and the maximum absorption stood at 359.0 nm. For the same compound, in series [2], the “Solubility to various organic solvents: PGMEA” value was 0.8 % by mass, the “Solubility … Ethyl acetate” value was determined as 0.8 % by mass, the “Solubility to various organic solvents: MEK” value is on record as 2 % by mass and the “Solubility to various organic solvents: MMA” value was determined as 1.2 % by mass. For the same compound, the “Solubility to various organic solvents: Toluene” value in series [2] was determined as 0.2 % by mass. Further, in series [3], the T-5% by mass was 312.7 °C.
On to `CCCCC(CC)C(=O)Nc1ccc(-n2nc3ccc(Sc4ccc(C(C)(C)C)cc4)cc3n2)c(O)c1` (centres unmarked) [Compound (58)], for which, in series [1], the gram absorption coefficient is listed as 6.61×10^4 g/mL·cm and the maximum absorption is 371.5 nm. Also, in series [2], the “Solubility to various organic solvents: PGMEA” value was 2 % by mass, the “Solubility … Ethyl acetate” value amounted to 3 % by mass, the “Solubility to various organic solvents: MEK” value is listed as 5 or more % by mass and the “Solubility to various organic solvents: MMA” value is recorded as 5 or more % by mass. In addition, the “Solubility to various organic solvents: Toluene” value in series [2] was found to be 2 % by mass. The T-5% by mass in series [3] amounted to 374.7 °C.
Take `CCC(C)(C)C(=O)Nc1ccc(-n2nc3ccc(Cl)cc3n2)c(O)c1` [Compound (59)]: in series [1], the gram absorption coefficient is listed as 8.40×10^4 g/mL·cm and the maximum absorption came out at 359.0 nm. In series [2], the “Solubility to various organic solvents: PGMEA” value was 5 or more % by mass, the “Solubility … Ethyl acetate” value is on record as 5 or more % by mass, the “Solubility to various organic solvents: MEK” value is given as 5 or more % by mass and the “Solubility to various organic solvents: MMA” value is 5 or more % by mass. In addition, the “Solubility to various organic solvents: Toluene” value in series [2] was determined as 2 % by mass. In series [3], this compound yielded a T-5% by mass of 309.1 °C.
With `CCC(C)(C)C(=O)Nc1ccc(-n2nc3ccc(Sc4ccc(C(C)(C)C)cc4)cc3n2)c(O)c1` [Compound (101)], in series [1], the gram absorption coefficient is 7.02×10^4 g/mL·cm and the maximum absorption is given as 371.5 nm. Besides, in series [2], the “Solubility to various organic solvents: PGMEA” value came to 1 % by mass, the “Solubility … Ethyl acetate” value was 1.5 % by mass, the “Solubility to various organic solvents: MEK” value was 3 % by mass and the “Solubility to various organic solvents: MMA” value is listed as 3 % by mass. Besides, the “Solubility to various organic solvents: Toluene” value in series [2] came out at 1 % by mass. For the same compound, the T-5% by mass in series [3] is 366.1 °C.
`CCNc1cc(O)c(-n2nc3ccc(OC)cc3n2)cc1C` [Compound (111)]: in series [1], the gram absorption coefficient is reported as 1.04×10^5 g/mL·cm and the maximum absorption is given as 378.5 nm. Besides, in series [2], the “Solubility to various organic solvents: PGMEA” value was 3 % by mass, the “Solubility … Ethyl acetate” value came out at 5 % by mass, the “Solubility to various organic solvents: MEK” value turned out to be 10 % by mass and the “Solubility to various organic solvents: MMA” value is reported as 4 % by mass. The “Solubility to various organic solvents: Toluene” value in series [2] turned out to be 1 % by mass. Also, the T-5% by mass in series [3] worked out at 252.6 °C.
Take `CCCCC(CC)C(=O)Nc1ccc(-n2nc3ccc(Sc4ccccc4)cc3n2)c(O)c1` (centres unmarked) [Compound (112)]: in series [1], the gram absorption coefficient is on record as 7.47×10^4 g/mL·cm and the maximum absorption is on record as 370.0 nm. Further, in series [2], the “Solubility to various organic solvents: PGMEA” value is 2 or more % by mass, the “Solubility … Ethyl acetate” value is on record as 3 or more % by mass, the “Solubility to various organic solvents: MEK” value was 10 or more % by mass and the “Solubility to various organic solvents: MMA” value is 4 or more % by mass. For the same compound, the “Solubility to various organic solvents: Toluene” value in series [2] is reported as 1 or more % by mass. This compound also came in with a T-5% by mass in series [3] of 368.0 °C.
With `CCCCC(CC)C(=O)Nc1ccc(-n2nc3ccc(Sc4ccc(C)cc4)cc3n2)c(O)c1` (centres unmarked) [Compound (113)], in series [1], the gram absorption coefficient is 6.98×10^4 g/mL·cm and the maximum absorption was found to be 371.5 nm. Further, in series [2], the “Solubility to various organic solvents: PGMEA” value is listed as 1 or more % by mass, the “Solubility … Ethyl acetate” value is 1 or more % by mass, the “Solubility to various organic solvents: MEK” value is recorded as 2.5 or more % by mass and the “Solubility to various organic solvents: MMA” value is 2 or more % by mass. Moreover, the “Solubility to various organic solvents: Toluene” value in series [2] is recorded as 0.5 or more % by mass. In series [3], this compound came in with a T-5% by mass of 365.5 °C.
In series [4], `Cc1cc(-n2nc3ccc(SCCOCCOCCSc4ccc5nn(-c6cc(C)cc(C(C)(C)C)c6O)nc5c4)cc3n2)c(O)c(C(C)(C)C)c1` [Compound D1] came in with a gram absorption coefficient of 59200 mL/g/cm and a maximum absorption of 368.5 nm. In series [2], the “Solubility: PGMEA” value is not above 1 % by mass, the “Solubility: EA” value is on record as not above 1 % by mass, the “Solubility: MEK” value is not above 1 % by mass and the “Solubility: MMA” value is not above 2 % by mass. The “Solubility: Toluene” value in series [2] is 3≤ % by mass. For the same compound, the “Decomposition temperature (Tg-5% by mass)” value in series [3] came out at 331.7 °C.
As for `Cc1cc(-n2nc3ccc(SCCOCCSc4ccc5nn(-c6cc(C)cc(C(C)(C)C)c6O)nc5c4)cc3n2)c(O)c(C(C)(C)C)c1` [Compound D2], in series [4], the gram absorption coefficient amounted to 63500 mL/g/cm and the maximum absorption worked out at 368.0 nm. In addition, in series [2], the “Solubility: MEK” value is reported as 3≤ % by mass, the “Solubility: MMA” value is given as 3≤ % by mass and the “Solubility: Toluene” value is given as 3≤ % by mass. Besides, the “Decomposition temperature (Tg-5% by mass)” value in series [3] was 322.2 °C.
In series [4], `Cc1cc(-n2nc3ccc(SCCOC(=O)c4cc(C(=O)OCCSc5ccc6nn(-c7cc(C)cc(C(C)(C)C)c7O)nc6c5)cc(C(=O)OCCSc5ccc6nn(-c7cc(C)cc(C(C)(C)C)c7O)nc6c5)c4)cc3n2)c(O)c(C(C)(C)C)c1` [Compound D3] showed a gram absorption coefficient of 62000 mL/g/cm and a maximum absorption of 364.5 nm. Also, in series [2], the “Solubility: PGMEA” value was not above 1 % by mass, the “Solubility: EA” value is reported as not above 1 % by mass, the “Solubility: MEK” value is on record as not above 0.5 % by mass and the “Solubility: MMA” value is recorded as not above 0.5 % by mass. Further, in series [2], the “Solubility: Toluene” value is recorded as 1.5≤ % by mass. The “Decomposition temperature (Tg-5% by mass)” value in series [3] was found to be 335.1 °C.
